The values below come from patent publication US11365192B2, “Pyridine compound substituted with azole” (TAISHO PHARMACEUTICAL CO., LTD., priority 2017, dated 2022).

The target of one assay is human CYP4F2 (Homo sapiens (Human), UniProt P78329). Description: Inhibition test against 20-HETE producing enzyme CYP4F2 (luciferine derivative, luminescence). In kind it is biochemical. How it is done: (§1) (1) Inhibition Test for Each Compound of the Present Invention Against 20-HETE Producing Enzymes (CYP4F2 and CYP4A11)
(§2) In the CYP4F2 inhibition test, the reaction solution containing each compound [final concentration of 50 mM, KPO4 (pH 7.4), 2.5 μM luciferine derivative, and 1 mM NADPH] was added to an Escherichia coli membrane fraction (100 μg/mL protein) in which human CYP4F2 had been expressed. In the CYP4A11 inhibition test, the reaction solution containing each compound [final concentration of 100 mM, Tris-HCl (pH 7.5), 60 μM luciferine derivative, 1.3 mM NADP^+, 3.3 mM Glucose 6-Phosphate, 3.3 mM MgCl2, and 0.4 U/mL Glucose 6-Phosphate dehydrogenase] was added to an Escherichia coli membrane fraction (100 μg/mL protein) in which human CYP4A11 had been expressed. Following this, the membrane fraction was left to stand at room temperature for 60 minutes to perform an enzymatic reaction. After the reaction, a luciferine detection reagent was added, and the luminescence value was measured using a plate reader. By using that value, the percent inhibition of 20-HETE producing enzyme (%) was calculated according to the equation described below, and the 50% inhibitory concentration (IC50 value) for each compound was calculated. Percent inhibition of 20-HETE producing enzyme (%)=[1−(A−B)/(C−B)]*100
(§3) A: Luminescence value with addition of compound
(§4) B: Luminescence value without addition of compound and enzyme

The target of the next assay is human CYP4A11 (Homo sapiens (Human), UniProt Q02928). In words: Inhibition test against 20-HETE producing enzyme CYP4A11 (luciferine derivative, luminescence). In kind it is biochemical. How it is done:
as §1, §2, §3, §4

[1] abbreviates: E. coli membrane fraction expressing human CYP4F2, 2.5 μM luciferine derivative, room temperature 60 minutes.
Setting [2] is: E. coli membrane fraction expressing human CYP4A11, 60 μM luciferine derivative, room temperature 60 minutes.
Setting [3] is: human CYP4F2, luciferine derivative, luminescence.
Where [4] appears, read: human CYP4A11, luciferine derivative, luminescence.

human CYP4A11, sequence (Q02928 5-519): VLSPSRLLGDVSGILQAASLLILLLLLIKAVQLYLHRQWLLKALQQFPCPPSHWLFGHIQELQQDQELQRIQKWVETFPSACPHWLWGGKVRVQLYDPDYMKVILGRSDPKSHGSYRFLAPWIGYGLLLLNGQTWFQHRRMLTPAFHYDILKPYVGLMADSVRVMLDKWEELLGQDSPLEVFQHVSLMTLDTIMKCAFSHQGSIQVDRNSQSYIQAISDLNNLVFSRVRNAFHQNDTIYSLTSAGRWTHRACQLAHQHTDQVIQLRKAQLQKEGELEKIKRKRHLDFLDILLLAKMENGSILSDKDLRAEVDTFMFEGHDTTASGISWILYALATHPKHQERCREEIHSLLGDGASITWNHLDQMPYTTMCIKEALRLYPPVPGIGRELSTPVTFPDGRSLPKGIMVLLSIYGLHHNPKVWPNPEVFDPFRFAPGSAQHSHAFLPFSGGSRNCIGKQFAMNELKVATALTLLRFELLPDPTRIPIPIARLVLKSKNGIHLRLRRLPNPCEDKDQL
human CYP4F2, sequence (P78329 5-520): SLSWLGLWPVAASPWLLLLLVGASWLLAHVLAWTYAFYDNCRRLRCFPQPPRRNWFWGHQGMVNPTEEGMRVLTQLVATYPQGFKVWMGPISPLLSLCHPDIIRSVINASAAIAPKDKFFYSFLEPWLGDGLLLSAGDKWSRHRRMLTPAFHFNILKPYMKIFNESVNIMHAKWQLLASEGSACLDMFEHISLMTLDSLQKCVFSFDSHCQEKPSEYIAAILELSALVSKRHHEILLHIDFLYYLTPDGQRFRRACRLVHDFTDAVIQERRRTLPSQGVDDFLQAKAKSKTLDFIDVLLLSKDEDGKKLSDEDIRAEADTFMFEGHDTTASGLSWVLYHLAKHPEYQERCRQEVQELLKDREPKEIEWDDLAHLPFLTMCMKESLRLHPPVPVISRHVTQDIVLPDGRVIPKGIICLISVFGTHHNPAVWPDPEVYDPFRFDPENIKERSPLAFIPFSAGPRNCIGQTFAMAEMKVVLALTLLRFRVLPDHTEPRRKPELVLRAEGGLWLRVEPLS

Usually IC50 stands for the midpoint of a concentration-inhibition curve. Low values mean higher potency, high ones lower potency. For the molecule `O=C(O)c1cccc(-c2cccc(COc3ccc(-c4ccn[nH]4)nc3)c2)c1` [Example 31-1, 3-[3-[[6-(1H-Pyrazol-5-yl)-3-pyridinyl]oxymethyl]phenyl]benzoic Acid], the IC50 at human CYP4F2 (setting [1]) is 0.11 µM; against human CYP4A11 (setting [2]), 0.0093 µM.
Regarding `O=C(O)[C@@H]1CCc2ccc(COc3ccc(-c4ccn[nH]4)nc3)cc2O1` [Example 69-3-1], the figures for the IC50 against human CYP4F2 (setting [3]) and on human CYP4A11 (setting [4]) were 0.11 µM and 0.023 µM, respectively.
In the case of `CNS(=O)(=O)c1cccc(CN(C)S(=O)(=O)c2cccc(COc3ccc(-c4ccn[nH]4)nc3)c2)c1` [Example 23-2, N-Methyl-3-[[methyl-[3-[[6-(1-H-pyrazol-5-yl)-3-pyridinyl]oxymethyl]phenyl]sulfonylamino]methyl]benzenesulfonamide], the IC50 at human CYP4F2 (setting [1]) was determined as 0.003 µM; against human CYP4A11 (setting [2]), 0.013 µM.
With `O=C(O)c1ncc2c(n1)CN(C(=O)c1cccc(COc3ccc(-c4ccn[nH]4)nc3)c1)C2` [Example 45-43], the figures for the IC50 against human CYP4F2 (setting [3]) and against human CYP4A11 (setting [4]) were 5.2 µM and 1.7 µM, respectively.
The matching figures for `O=C(O)C1(Cc2cccc(CCOc3ccc(-c4ccn[nH]4)nc3)c2F)COC1` [Example 71-27]: 15 µM and 0.094 µM.
The like results for `CN(C)C(=O)C1CC1c1cccc(COc2ccc(-c3ccn[nH]3)nc2)c1` (centres unmarked) [Example 43-16] were, in that order, 0.022 µM and 0.19 µM.
For `O=C(O)C1CC1c1cccc(COc2ccc(-c3ccn[nH]3)nc2)c1F` (centres unmarked) [Example 70-3, 2-[2-Fluoro-3-[[6-(1H-pyrazol-5-yl)pyridin-3-yl]oxymethyl]phenyl]cyclopropane-1-carboxylic Acid], the IC50 was 0.28 µM on human CYP4F2 (setting [3]) and 0.028 µM against human CYP4A11 (setting [4]).
`CC(C)(CCCCCCCCOc1ccc(-c2ccn[nH]2)nc1)C(=O)O` [Example 1-63]: the values for the IC50 against human CYP4F2 (setting [1]) and at human CYP4A11 (setting [2]) were 0.0089 µM and 0.036 µM, respectively.
For `O=C(O)C1CCc2ccc(CCOc3ccc(-c4ccn[nH]4)nc3)cc2O1` (centres unmarked) [Example 71-21, 7-[2-[6-(1H-Pyrazol-5-yl)pyridin-3-yl]oxyethyl]-3,4-dihydro-2H-chromene-2-carboxylic Acid], the concentration for half-maximal inhibition (IC50) against human CYP4F2 (setting [3]) was 0.19 µM; on human CYP4A11 (setting [4]), 0.33 µM.
Consider `O=C(CCCC1(C(=O)O)CCCC1)N1CCC(COc2ccc(-c3ccn[nH]3)nc2)CC1` [Example 47-1, 1-[4-Oxo-4-[4-[[6-(1H-pyrazol-5-yl)-3-pyridinyl]oxymethyl]-1-piperidinyl]butyl]-1-cyclopentanecarboxylic Acid], for which the values for the IC50 against human CYP4F2 (setting [1]) and on human CYP4A11 (setting [2]) were 0.15 µM and 0.83 µM, respectively.
The like results for `O=C(O)C1CCCC(CCCOc2ccc(-c3ccn[nH]3)nc2)C1` (centres unmarked) [Example 1-29] were, in that order, 0.36 µM and 0.03 µM.
The like results for `O=C(O)Cn1cc(CCCCOc2ccc(-c3ccn[nH]3)nc2)nn1` [Example 35-2] were, in that order, 5.7 µM and 0.36 µM.
The matching figures for `O=C(Cc1cccc(COc2ccc(-c3ccn[nH]3)nc2)c1)NCCO` [Example 42-7]: 1.1 µM and 0.76 µM.
For the molecule `O=C(O)C1(Cc2cccc(CCOc3ccc(-c4ccn[nH]4)nc3)c2F)CC1` [Example 72-8], the half-maximal inhibitory concentration (IC50) at human CYP4F2 (setting [3]) turned out to be 1.7 µM; on human CYP4A11 (setting [4]), 0.015 µM.
Take `CC(C)(Oc1cccc(CCCCOc2ccc(-c3ccn[nH]3)nc2)c1)C(=O)O` [Example 1-36]: the IC50 is 1.3 µM against human CYP4F2 (setting [1]) and 0.11 µM against human CYP4A11 (setting [2]).
The like results for `CNC(=O)CCc1cccc(COc2ccc(-c3ccn[nH]3)nc2)c1` [Example 42-8] were, in that order, 0.07 µM and 0.12 µM.
Regarding `CC(C)(Oc1ccc(CCOc2ccc(-c3ccn[nH]3)nc2)cn1)C(=O)O` [Example 71-32], the figures for the IC50 on human CYP4F2 (setting [3]) and at human CYP4A11 (setting [4]) were 23 µM and 6.2 µM, respectively.
With `Oc1cccc(CCOc2ccc(-c3ccn[nH]3)nc2)c1` [Example 13-3], the IC50 against human CYP4F2 (setting [1]) turned out to be 0.019 µM; at human CYP4A11 (setting [2]) it was 0.3 µM.
Consider `O=C(O)CCNC(=O)c1cc(COc2ccc(-c3ccn[nH]3)nc2)ccn1` [Example 49-1, 3-[[Oxo-[4-[[6-(1H-pyrazol-5-yl)-3-pyridinyl]oxymethyl]-2-pyridinyl]methyl]amino]propanoic Acid], for which the half-inhibitory concentration (IC50) was determined as 1.1 µM against human CYP4F2 (setting [1]) and 1.2 µM on human CYP4A11 (setting [2]).
In the case of `O=C(O)c1ccc(F)c(CCCOc2ccc(-c3ccn[nH]3)nc2)c1` [Example 71-13], the results for the IC50 on human CYP4F2 (setting [3]) and on human CYP4A11 (setting [4]) were 0.77 µM and 0.051 µM, respectively.
For `O=C(O)CCc1ccccc1COc1ccc(-c2ccn[nH]2)nc1` [Example 1-4], the half-inhibitory concentration (IC50) on human CYP4F2 (setting [1]) was found to be 16 µM; on human CYP4A11 (setting [2]), 0.11 µM.
The like results for `CN(C)C(=O)Cc1cccc(COc2ccc(-c3ccn[nH]3)nc2)c1` [Example 42-5] were, in that order, 0.26 µM and 0.2 µM.
The like results for `O=C(O)c1cccc(CCCOc2ccc(-c3ccn[nH]3)nc2)n1` [Example 29-1, 6-[3-[[6-(1H-Pyrazol-5-yl)-3-pyridinyl]oxy]propyl]-2-pyridinecarboxylic Acid] were, in that order, 4 µM and 0.65 µM.
With `CC(C)(COc1ccc(COc2ccc(-c3ccn[nH]3)nc2)cn1)C(=O)O` [Example 75-5], the figures for the IC50 against human CYP4F2 (setting [3]) and at human CYP4A11 (setting [4]) were 0.78 µM and 0.72 µM, respectively.
Turning to `CC(C)S(=O)(=O)Nc1cccc(COc2ccc(-c3ccn[nH]3)nc2)c1` [Example 56-1, N-[3-[[6-(1H-Pyrazol-5-yl)-3-pyridinyl]oxymethyl]phenyl]-2-propanesulfonamide], the half-maximal inhibitory concentration (IC50) turned out to be 0.45 µM at human CYP4F2 (setting [1]) and 0.14 µM on human CYP4A11 (setting [2]).
As for `O=C(O)C1CCCC(c2cccc(COc3ccc(-c4ccn[nH]4)nc3)c2)C1` (centres unmarked) [Example 8-3], the IC50 amounted to 0.86 µM against human CYP4F2 (setting [1]) and 0.028 µM against human CYP4A11 (setting [2]).
The matching figures for `O=C(O)C(F)(F)c1cccc(COc2ccc(-c3ccn[nH]3)nc2)c1` [Example 60-1, 2,2-Difluoro-2-[3-[[6-(1H-pyrazol-5-yl)-3-pyridinyl]oxymethyl]phenyl]acetic Acid]: 37 µM and 0.0082 µM.
As for `O=C(O)c1cc(COc2ccc(-c3ccn[nH]3)nc2)ccc1Cl` [Example 22-16], the figures for the IC50 on human CYP4F2 (setting [1]) and against human CYP4A11 (setting [2]) were 33 µM and 0.78 µM, respectively.
On to `C[C@H](CO)NC(=O)CCc1cccc(COc2ccc(-c3ccn[nH]3)nc2)c1` [Example 43-8], for which the IC50 against human CYP4F2 (setting [3]) and at human CYP4A11 (setting [4]) was 0.12 µM throughout.
As to `O=C(O)C1(CCCCOc2ccc(-c3ccn[nH]3)nc2)CCCC1` [Example 1-34], the concentration for half-maximal inhibition (IC50) worked out at 1.8 µM on human CYP4F2 (setting [1]) and 0.038 µM at human CYP4A11 (setting [2]).
The like results for `O=C(O)COc1ccc(COc2ccc(-c3ccn[nH]3)nc2)cc1` [Example 8-9] were, in that order, 6.2 µM and 0.029 µM.
As for `O=C(CCc1cccc(COc2cnc(-c3ccn[nH]3)c(F)c2)c1)NCCO` [Example 42-18], the figures for the concentration for half-maximal inhibition (IC50) against human CYP4F2 (setting [3]) and on human CYP4A11 (setting [4]) were 0.021 µM and 0.058 µM, respectively.
Turning to `O=C(CCC12CC(C(=O)O)(C1)C2)N1CCC[C@@H](COc2ccc(-c3ccn[nH]3)nc2)C1` [Example 46-2], the concentration for half-maximal inhibition (IC50) on human CYP4F2 (setting [1]) turned out to be 0.47 µM; against human CYP4A11 (setting [2]), 0.73 µM.
For the molecule `O=C(O)C1CCN(C(=O)c2cccc(COc3ccc(-c4ccn[nH]4)nc3)c2)CC1` [Example 45-27], the IC50 against human CYP4F2 (setting [3]) was 2.2 µM; against human CYP4A11 (setting [4]), 0.51 µM.
Take `CC(C)(CC(=O)N1CCCC(CCCOc2ccc(-c3ccn[nH]3)nc2)C1)C(=O)O` (centres unmarked) [Example 1-32]: the figures for the IC50 at human CYP4F2 (setting [1]) and at human CYP4A11 (setting [2]) were 3.8 µM and 9.3 µM, respectively.
The matching figures for `CC(C)(O)c1cccc(COc2ccc(-c3ccn[nH]3)nc2)c1` [Example 27-1, 2-[3-[[6-(1-H-Pyrazol-5-yl)-3-pyridinyl]oxymethyl]phenyl]-2-propanol]: 0.4 µM and 0.044 µM.
The like results for `O=C(CCC1(C(=O)O)CCCC1)N1CCC(CCOc2ccc(-c3ccn[nH]3)nc2)CC1` [Example 3-3] were, in that order, 2.3 µM and 0.39 µM.
On to `CC(C)(CCc1cc(COc2ccc(-c3ccn[nH]3)nc2)ccn1)C(=O)O` [Example 1-38], for which the results for the IC50 against human CYP4F2 (setting [1]) and against human CYP4A11 (setting [2]) were 1.2 µM and 0.042 µM, respectively.
As to `NS(=O)(=O)CCCC(=O)N1CCC[C@@H](COc2ccc(-c3ccn[nH]3)nc2)C1` [Example 41-6], the IC50 against human CYP4F2 (setting [1]) came out at 0.32 µM; on human CYP4A11 (setting [2]), 0.44 µM.
On to `O=C(O)C1(CCCCCCCCOc2ccc(-c3ccn[nH]3)nc2)CCCO1` (centres unmarked) [Example 72-5], for which the IC50 amounted to 0.043 µM on human CYP4F2 (setting [3]) and 0.26 µM at human CYP4A11 (setting [4]).
For `O=C(O)[C@H]1CC[C@@H](c2cccc(COc3ccc(-c4ccn[nH]4)nc3)c2)CC1` [Example 8-1, cis-4-[3-[[6-(1H-Pyrazol-5-yl)-3-pyridinyl]oxymethyl]phenyl]-1-cyclohexanecarboxylic Acid], the concentration for half-maximal inhibition (IC50) at human CYP4F2 (setting [1]) came out at 0.79 µM; on human CYP4A11 (setting [2]) it was 0.02 µM.
The like results for `CC(C)(CCCCCOc1ccc(-c2ccn[nH]2)nc1)C(=O)O` [Example 1-43, 2,2-Dimethyl-7-[[6-(1H-pyrazol-5-yl)-3-pyridinyl]oxy]heptanoic Acid] were, in that order, 18 µM and 0.046 µM.
Take `O=C(O)c1nc2c(o1)CCN(C(=O)c1cccc(COc3ccc(-c4ccn[nH]4)nc3)c1)C2` [Example 45-46]: the IC50 at human CYP4F2 (setting [3]) is 0.054 µM; against human CYP4A11 (setting [4]), 0.16 µM.
